# According to ChEMBL document CHEMBL1133958, “Derivatives of (2R,3R,4S)-2-aminomethylpyrrolidine-3,4-diol are selective alpha-mannosidase inhibitors” (Bioorg Med Chem Lett, 2001):
# Activity calls are given as the source filed them. No cut-off for these calls is given here.
# Tests used:
# [1] = target: Beta-glucosidase A (Caldicellulosiruptor saccharolyticus) (UniProt P10482); assay: Percentage inhibition of Beta-Glucosidase from Caldocellum saccharol. at 1 mM
# [2] = target: Glucoamylase (Aspergillus niger) (UniProt P69328); assay: Percentage inhibition of Alpha-glucosidase from Aspergillus niger (amyloglucosidase) at 1 mM; No inhibition
# [3] = target: T1, Alpha-glucosidase (Oryza sativa Japonica Group) (UniProt Q9LGC6); assay: Percentage inhibition of Alpha-glucosidase from Rice (maltase) at 1 mM; […]
# T1 sequence (whole entry): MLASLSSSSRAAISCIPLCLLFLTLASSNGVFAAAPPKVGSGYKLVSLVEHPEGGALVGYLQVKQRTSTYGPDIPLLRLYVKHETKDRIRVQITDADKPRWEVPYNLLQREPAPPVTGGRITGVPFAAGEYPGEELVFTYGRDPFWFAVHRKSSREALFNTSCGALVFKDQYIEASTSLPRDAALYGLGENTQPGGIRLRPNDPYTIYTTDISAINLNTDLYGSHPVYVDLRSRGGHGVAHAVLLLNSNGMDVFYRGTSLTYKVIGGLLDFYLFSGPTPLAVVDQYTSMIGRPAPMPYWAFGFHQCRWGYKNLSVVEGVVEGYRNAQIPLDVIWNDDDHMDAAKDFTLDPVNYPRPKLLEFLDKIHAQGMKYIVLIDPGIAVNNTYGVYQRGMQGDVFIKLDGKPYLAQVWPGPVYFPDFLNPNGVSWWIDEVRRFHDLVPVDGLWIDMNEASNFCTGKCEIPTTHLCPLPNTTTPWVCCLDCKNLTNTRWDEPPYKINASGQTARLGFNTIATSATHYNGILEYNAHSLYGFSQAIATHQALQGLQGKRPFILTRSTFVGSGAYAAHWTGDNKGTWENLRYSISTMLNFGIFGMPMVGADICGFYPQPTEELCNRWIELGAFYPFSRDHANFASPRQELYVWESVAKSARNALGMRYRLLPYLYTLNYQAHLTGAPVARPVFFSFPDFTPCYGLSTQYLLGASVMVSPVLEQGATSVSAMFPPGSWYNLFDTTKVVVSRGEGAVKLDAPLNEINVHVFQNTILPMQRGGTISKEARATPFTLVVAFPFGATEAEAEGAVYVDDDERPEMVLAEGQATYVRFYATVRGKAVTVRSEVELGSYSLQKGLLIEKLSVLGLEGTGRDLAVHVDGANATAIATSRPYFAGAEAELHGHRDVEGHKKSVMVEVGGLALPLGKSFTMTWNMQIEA
# [4] = target: Beta-galactosidase (Escherichia coli K-12) (UniProt P00722); assay: Percentage inhibition of Beta-galactosidase from Escherichia coli at 1 mM concentration
# [5] = Inhibitory activity towards Alpha-glucosidase from Baker yeast (isomaltase); set-up: species or system Saccharomyces cerevisiae
# Beta-glucosidase A = Beta-glucosidase A (Caldicellulosiruptor saccharolyticus, UniProt P10482); assay: Inhibitory activity towards Beta-Glucosidase from Caldocellum saccharol.
# Saccharomyces cerevisiae = assay: Percentage inhibition of Alpha-glucosidase from Baker yeast (isomaltase) at 1 mM
# Beta-galactosidase = target: T2, Beta-galactosidase (Bos taurus, UniProt Q58D55); assay: Inhibitory activity towards Beta-galactosidase from Bovine liver
# T2 sequence (Q58D55 whole entry): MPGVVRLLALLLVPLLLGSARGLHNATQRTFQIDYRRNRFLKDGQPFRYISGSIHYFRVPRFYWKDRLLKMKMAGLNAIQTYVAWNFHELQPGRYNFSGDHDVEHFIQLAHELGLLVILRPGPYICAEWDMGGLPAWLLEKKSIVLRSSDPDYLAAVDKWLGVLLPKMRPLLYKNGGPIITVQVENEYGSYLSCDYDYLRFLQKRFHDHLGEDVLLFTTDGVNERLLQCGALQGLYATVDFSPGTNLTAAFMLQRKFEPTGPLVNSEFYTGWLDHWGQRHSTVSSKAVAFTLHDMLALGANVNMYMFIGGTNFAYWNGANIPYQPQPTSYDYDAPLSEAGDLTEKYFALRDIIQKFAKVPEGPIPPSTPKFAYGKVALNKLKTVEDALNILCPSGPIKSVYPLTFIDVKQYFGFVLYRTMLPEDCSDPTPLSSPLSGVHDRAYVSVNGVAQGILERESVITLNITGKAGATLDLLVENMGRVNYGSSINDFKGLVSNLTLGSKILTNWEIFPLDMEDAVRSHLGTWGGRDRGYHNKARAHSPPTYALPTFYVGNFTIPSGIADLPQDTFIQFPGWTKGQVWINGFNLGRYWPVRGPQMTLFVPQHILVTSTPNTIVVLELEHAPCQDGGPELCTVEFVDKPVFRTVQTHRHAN
# [6] = Inhibitory activity towards Alpha-glucosidase from Yeast (maltase); set-up: species or system Saccharomyces cerevisiae
# [7] = Percentage inhibition of Beta-galactosidase from Aspergillus oryzae at 1 mM; No inhibition
# [8] = target: T3, Beta-galactosidase (Aspergillus niger) (UniProt P29853); assay: Percentage inhibition of Beta-galactosidase from Aspergillus niger at 1 mM concentration; […]
# T3 sequence (whole entry): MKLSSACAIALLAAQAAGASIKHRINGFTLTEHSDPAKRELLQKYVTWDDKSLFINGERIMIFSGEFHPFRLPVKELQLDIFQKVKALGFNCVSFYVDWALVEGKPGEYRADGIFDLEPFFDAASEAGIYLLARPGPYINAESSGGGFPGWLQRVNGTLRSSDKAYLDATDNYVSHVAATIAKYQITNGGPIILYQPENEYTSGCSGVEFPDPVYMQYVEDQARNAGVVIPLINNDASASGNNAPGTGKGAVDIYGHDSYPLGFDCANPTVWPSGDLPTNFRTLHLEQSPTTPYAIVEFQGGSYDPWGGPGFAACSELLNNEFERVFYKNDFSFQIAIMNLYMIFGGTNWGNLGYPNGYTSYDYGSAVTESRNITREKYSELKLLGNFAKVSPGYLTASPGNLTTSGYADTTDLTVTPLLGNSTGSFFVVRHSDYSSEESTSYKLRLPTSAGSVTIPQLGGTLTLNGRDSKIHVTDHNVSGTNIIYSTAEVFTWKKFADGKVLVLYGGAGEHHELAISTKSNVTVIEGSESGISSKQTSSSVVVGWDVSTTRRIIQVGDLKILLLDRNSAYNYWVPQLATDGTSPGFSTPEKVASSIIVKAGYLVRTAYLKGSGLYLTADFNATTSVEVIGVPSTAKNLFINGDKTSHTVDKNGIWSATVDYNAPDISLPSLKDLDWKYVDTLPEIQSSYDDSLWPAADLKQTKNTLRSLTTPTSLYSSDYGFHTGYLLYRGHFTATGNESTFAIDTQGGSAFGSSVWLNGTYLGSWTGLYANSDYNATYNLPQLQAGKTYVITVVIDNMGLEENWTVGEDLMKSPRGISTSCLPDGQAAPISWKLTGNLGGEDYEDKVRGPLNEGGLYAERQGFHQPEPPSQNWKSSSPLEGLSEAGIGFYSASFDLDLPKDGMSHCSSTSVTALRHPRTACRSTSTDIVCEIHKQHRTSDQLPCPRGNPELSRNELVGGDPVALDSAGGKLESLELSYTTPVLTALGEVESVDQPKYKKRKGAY
# Chain of Beta-glucosidase A (Caldicellulosiruptor saccharolyticus) (P10482 whole entry): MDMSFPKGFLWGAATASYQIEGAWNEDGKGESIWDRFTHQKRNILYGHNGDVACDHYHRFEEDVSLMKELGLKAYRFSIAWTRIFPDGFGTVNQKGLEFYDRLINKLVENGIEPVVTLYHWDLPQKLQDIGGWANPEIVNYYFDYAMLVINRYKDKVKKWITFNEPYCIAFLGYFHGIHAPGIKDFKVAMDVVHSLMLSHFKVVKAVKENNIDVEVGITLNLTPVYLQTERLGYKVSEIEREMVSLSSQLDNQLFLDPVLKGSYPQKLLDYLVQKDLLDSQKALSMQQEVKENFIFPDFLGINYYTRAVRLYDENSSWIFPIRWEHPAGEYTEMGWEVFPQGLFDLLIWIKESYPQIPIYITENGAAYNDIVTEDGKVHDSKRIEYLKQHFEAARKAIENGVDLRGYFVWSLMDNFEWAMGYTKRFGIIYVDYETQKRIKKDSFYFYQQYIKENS
# Chain of Beta-glucosidase A (P10482 whole entry): as above
# Chain of Beta-galactosidase (Escherichia coli K-12) (P00722 whole entry): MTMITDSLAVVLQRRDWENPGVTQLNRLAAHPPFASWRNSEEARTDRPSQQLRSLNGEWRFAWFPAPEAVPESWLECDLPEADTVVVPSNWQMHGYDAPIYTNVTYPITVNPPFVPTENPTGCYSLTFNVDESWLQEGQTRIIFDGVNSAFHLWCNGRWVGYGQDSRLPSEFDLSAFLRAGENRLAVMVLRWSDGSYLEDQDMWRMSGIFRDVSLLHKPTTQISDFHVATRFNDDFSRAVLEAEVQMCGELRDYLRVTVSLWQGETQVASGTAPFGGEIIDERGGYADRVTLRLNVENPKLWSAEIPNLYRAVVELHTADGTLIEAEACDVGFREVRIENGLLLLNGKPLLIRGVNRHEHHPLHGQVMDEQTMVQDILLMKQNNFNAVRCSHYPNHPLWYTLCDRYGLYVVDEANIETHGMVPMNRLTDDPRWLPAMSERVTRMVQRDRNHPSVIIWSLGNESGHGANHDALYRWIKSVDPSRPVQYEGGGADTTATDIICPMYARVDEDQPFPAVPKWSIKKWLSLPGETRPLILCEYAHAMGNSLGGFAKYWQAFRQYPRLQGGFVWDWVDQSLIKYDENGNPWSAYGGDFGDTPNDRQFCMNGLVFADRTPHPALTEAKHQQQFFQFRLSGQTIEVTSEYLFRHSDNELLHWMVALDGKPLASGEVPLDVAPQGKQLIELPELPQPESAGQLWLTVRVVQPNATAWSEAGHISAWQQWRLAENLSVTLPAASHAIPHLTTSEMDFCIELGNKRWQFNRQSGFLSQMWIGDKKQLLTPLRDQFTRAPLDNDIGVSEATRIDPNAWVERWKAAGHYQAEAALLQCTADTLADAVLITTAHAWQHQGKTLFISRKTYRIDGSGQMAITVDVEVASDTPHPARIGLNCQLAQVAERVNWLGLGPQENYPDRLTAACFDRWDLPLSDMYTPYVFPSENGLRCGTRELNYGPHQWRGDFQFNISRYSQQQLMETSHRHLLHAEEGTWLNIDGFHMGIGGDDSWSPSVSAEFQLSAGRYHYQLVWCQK
# Chain of Glucoamylase (Aspergillus niger) (P69328 whole entry): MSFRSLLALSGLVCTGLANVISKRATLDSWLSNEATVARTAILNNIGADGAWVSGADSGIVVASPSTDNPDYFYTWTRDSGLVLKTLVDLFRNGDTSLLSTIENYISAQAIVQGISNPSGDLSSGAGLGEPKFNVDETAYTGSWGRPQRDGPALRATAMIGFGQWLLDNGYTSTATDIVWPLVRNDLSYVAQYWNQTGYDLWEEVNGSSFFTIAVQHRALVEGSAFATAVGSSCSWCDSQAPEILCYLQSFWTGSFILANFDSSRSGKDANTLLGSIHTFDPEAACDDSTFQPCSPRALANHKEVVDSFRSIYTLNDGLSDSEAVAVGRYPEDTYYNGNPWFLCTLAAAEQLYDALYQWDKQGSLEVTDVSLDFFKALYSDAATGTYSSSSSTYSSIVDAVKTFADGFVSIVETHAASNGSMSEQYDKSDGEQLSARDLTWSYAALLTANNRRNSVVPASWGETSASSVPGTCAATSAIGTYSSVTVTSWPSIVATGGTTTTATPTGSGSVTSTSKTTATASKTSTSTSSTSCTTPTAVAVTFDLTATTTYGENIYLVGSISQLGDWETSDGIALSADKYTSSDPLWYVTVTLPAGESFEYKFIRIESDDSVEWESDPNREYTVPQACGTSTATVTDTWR
compound,measurement,setting,value
OC1CNC(CNCC2CCN(Cc3ccccc3)CC2)C1O (configuration not stated),inhibition,[1],76%
same,inhibition,[2],inactive
same,inhibition,[3],inactive
same,inhibition,[4],39%
same,IC50,[5],120 µM
same,Ki,[5],40 µM
same,IC50,Beta-glucosidase A,290 µM
same,inhibition,Saccharomyces cerevisiae,90%
same,IC50,Beta-galactosidase,770 µM
same,IC50,[6],610 µM
same,inhibition,[7],inactive
same,inhibition,[8],inactive
